Source: PMC7170311 (Journal of Enzyme Inhibition and Medicinal Chemistry, 2020)

Biological target: T1, Gal4-DBD-RXRα-LBD (Homo sapiens, UniProt P19793)
T1 sequence (P19793 227-458 limits assumed): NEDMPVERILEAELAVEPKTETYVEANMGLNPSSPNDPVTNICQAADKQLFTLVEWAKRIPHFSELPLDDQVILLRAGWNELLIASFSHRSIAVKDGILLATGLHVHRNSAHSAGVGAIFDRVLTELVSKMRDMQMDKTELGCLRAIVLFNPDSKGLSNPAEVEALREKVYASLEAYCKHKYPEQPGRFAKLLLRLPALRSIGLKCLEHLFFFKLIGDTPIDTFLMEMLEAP
Assay: cell-based
Conditions: HEK-293T, read-out: inhibition of 9-cis-RA-induced RXRα transactivation

inhibition at 1 µM: > 50%
SMILES: Cc1ccc(NC(=O)NNC(=O)c2ccc(Nc3nccc(-c4cccnc4)n3)cc2)cc1 [Compound 6k, 2-(4-((4-(pyridin-3-yl)pyrimidin-2-yl)amino)benzoyl)-N-(p-tolyl)hydrazine-1-carboxamide]
